Data as given in patent publication US9494589B2, “Method of determining the probability of a therapeutic response in cancer chemotherapy with cardiac glycoside” (priority 2007, dated 2016).

What was measured:
[1] = tested on: rodent (mouse and rat) tumor cell lines; assay: In vitro proliferation of rodent tumor cell lines; format: cell-based; conditions: rodent tumor cell lines lacking α3 subunit isoform
Source text: Rodent (rat or mouse) cancer cells can be used as a negative control sample. FIG. 1A depicts a film developed against the gel of a Western blot analysis of rodent tumor cell lines. […] Human tumor cell lines are generally more sensitive to treatment with cardiac glycoside-containing composition than are murine tumor cells (FIG. 1B). The inventors believe this difference in therapeutic responsiveness is due to the differences in the ratio of α3 to α1 isoforms in the two different species, as noted above.

PANC1 cells = assay: In vitro cytotoxicity, MTT assay of cell proliferation; format: cell-based, human; conditions: PANC1, Pancreas, 72 hr; for IC50: Homo sapiens, PANC-1
Source text: (§1) As defined in the Tables above, an “in vitro response” denotes the extent to which proliferation of a given tumor cell line is inhibited with a stated concentration of drug (cardiac glycoside) over a defined period of time. A designation of “no response” denotes less than 50% growth inhibition at any of the multiple drug concentrations tested. That is, no concentration could be identified as an IC50 value (that concentration producing inhibition of cell growth by 50% over the stated period of time of the experiment). Accordingly, were this tumor cell line growing in a mammal such as a human, it is probable that the drug would be ineffective in producing significant inhibition of tumor growth. The designation of “partial response” in the Table above denotes the capacity of a given cardiac glycoside such as oleandrin or bufalin to inhibit cell proliferation by more than 50% but less than 75% relative to nontreated tumor cell growth. Accordingly, this would equate to a partial or less than complete therapeutic response of the tumor to the cardiac glycoside if this product were used to treat tumor growth in a mammal such as a human. […] Accordingly, it is probable that total inhibition of tumor growth (or a complete therapeutic response, in a mammal might be achieved.
(§2) Cells were grown in their relevant media as indicated in the table below at a density of 1×10^4 cells/well. After a 24 hr incubation period, cells were treated with various concentrations of oleandrin (1 to 500 nM). After an additional 72 hr, inhibition of cellular proliferation was assessed by MTT assay (23). Absorbance was read at a wavelength of 570 nm and a reference wavelength of 650 nm using a V-Max Micro-plate Reader by Molecular Devices, Inc. (Sunnyvale, Calif.). The relative extent of inhibition of cell proliferation due to the presence of a given concentration of oleander extract or other plant extract containing a cardiac glycoside compound(s) can be derived by comparing treated to non-treated cell numbers after a set period of time allowing for cell growth (e.g. 24-72 hr).

BXPC3 cells = assay: as above; format: cell-based, human; conditions: BXPC3, Pancreas; 72 hr
Source text: as §1, §2

MiaPaca cells = assay: as above; format: cell-based, human; conditions: 72 hr; for IC50: Homo sapiens, MIA PaCa-2, Pancreas; for In vitro response: Pancreas
Source text: as §1, §2

[2] = tested on: α1 transfected Panc-1 cells; assay: Sensitivity to oleandrin of Panc-1 cells transfected with α1 subunit isoform; format: cell-based; conditions: Homo sapiens
Source text: (§3) Still further proof of the relative importance of the α3/α1 isoform ratio toward predictability of a therapeutic response by a target malignant tissue to treatment with a cardiac glycoside was established by transfection of Panc-1 cells with α1 subunit isoform. The Na, K-ATPase α1 subunit isoform was transfected to Panc-1 cells, which normally lack α1 expression. The control sample in FIG. 5A is for non-transfected Panc-1 cells, and the α1cDNA sample in FIG. 5A is for Panc-1 cells transfected with the α1 subunit isoform. As a result, the ratio of α3 to α1 was reduced in the transfected Panc-1 cells (FIG. 5B). The sensitivity of the transfected Panc-1 cells to oleandrin treatment was then evaluated.

BRO cells = assay: In vitro cytotoxicity, MTT assay of cell proliferation; format: cell-based, human; conditions: Melanoma, 72 hr
Source text: as §1, §2

HCT116 cells = assay: as above; format: cell-based, human; conditions: HCT116, Colon, 72 hr
Source text: as §1, §2

MCF7 cells = assay: as above; format: cell-based, human; conditions: MCF7, Breast; 72 hr
Source text: as §1, §2

SUM149 cells = assay: as above; format: cell-based, human; conditions: SUM149, Breast, 72 hr
Source text: as §1, §2

HT29 cells = assay: as above; format: cell-based, human; conditions: HT29, Colon, 72 hr
Source text: as §1, §2

DOD-1 cells = assay: as above; format: cell-based, human; conditions: DOD-1, Colon, 72 hr
Source text: as §1, §2

LS174T cells = assay: as above; format: cell-based, human; conditions: Colon, 72 hr
Source text: as §1, §2

CACO2 cells = assay: as above; format: cell-based, human; conditions: CACO2, Colon, 72 hr
Source text: as §1, §2

MDA231 cells = assay: as above; format: cell-based, human; conditions: MDA231, Breast; 72 hr
Source text: as §1, §2

[3] = tested on: Panc-1 cells transfected with α3 siRNA; assay: Sensitivity to oleandrin of Panc-1 cells transfected with α3 siRNA, Calcein AM viability; format: cell-based, human; conditions: α3 expression reduced by siRNA; 10 to 50 nM, 48 hr
Source text: Further proof of the relative importance of the α3/α1 isoform ratio toward predictability of a therapeutic response by a target malignant tissue to treatment with a cardiac glycoside was established as follows. Artificial down-regulation of the expression of α3 isoform in human pancreatic cancer cells, i.e. manipulation of isoform content of subunits of Na, K-ATPase, was achieved by transfection of cells with siRNA (silencing RNA) specific to the α3 isoform. […] Quantitation of the decreased expression of α3 by Western blot is detailed in FIG. 4B.
Panc-1 cells were plated in 6 and 48 well plates and allowed to attach overnight. Transient transfection of α3 siRNA molecules was carried out using siPORT™ Amine Transfection Agent (Ambion Austin, Tex.) and 0.4 μM α3 silencing RNA (Santa Cruz Biotech.) following the manufacture's instructions. Twenty-four hr after transfection, cells were treated with 10 to 50 nM oleandrin for 48 hr. Protein was collected from the 6 well plates for Western blot analysis and cell viability assessment was carried out by Calcien AM staining.

human tumor cell lines = assay: Mean IC50 of growth inhibition in groups of tumor cell lines by α3/α1 isoform ratio; format: cell-based; conditions: ten cell lines α3/α1 >1.0 versus six cell lines α3/α1 <1.0
Procedure: FIG. 3A depicts a plot of concentration (nM) of oleandrin (provided as oleandrin) versus the percentage of growth of control. […] Exemplary cell lines for the groups are: Group I-MDA231, BXPC3, MCF-7; Group II-SUM149, BRO; Group III-Panc-1, CaCo2. The response data are as predicted by the isoform ratio data. In order to establish the robustness of the method and kit of the invention, a statistical analysis of cellular response data was conducted. The data in FIG. 3B depict the relative ability of oleandrin-containing composition to inhibit human tumor cell proliferation in vitro. The data are depicted as Mean±SD. Oleandrin mediated growth inhibition was examined in ten cell lines (representing a variety of solid tumors) in which the relative subunit content α3/α1 isoform ratio >1.0 and six cell lines in which the α3/α1 isoform ratio <1.0.
Student's t test was used to determine the statistical differences between various experimental groups; a value of P<0.05 was considered to be significant.

[4] = tested on: non-transfected Panc-1 cells; assay: Sensitivity to oleandrin of non-transfected Panc-1 cells; format: cell-based; conditions: Homo sapiens
Source text: as §3

[5] = tested on: Human pancreatic cancer PANC-1 cells; assay: Cytotoxicity comparison of oleandrin and extracts, crystal violet staining; format: cell-based; conditions: oleandrin equivalent concentrations, 72 hr
Procedure: (§4) The cytotoxic potential of both extracts are compared directly with that of oleandrin. The samples contained the same amounts of oleandrin even though their concentration of oleandrin differed due to the concentration of oleandrin present in the extracts.
(§5) BRO (human melanoma) and Panc-1 (human pancreatic cancer) cells (8×10^3/well) were plated in a 96 well plate and allowed to attach overnight. Drug or extracts were then added to the cells. After 72 hr of incubation, relative cell proliferation (relative to control untreated cells) was assessed by crystal violet staining method.

Human melanoma BRO cells = assay: as above; format: cell-based; conditions: oleandrin equivalent concentrations, 72 hr
Procedure: as §4, §5

Question: With `C[C@@H]1O[C@@H](O[C@H]2C[C@@H](O)[C@]3(CO)[C@H]4[C@H](O)C[C@]5(C)[C@@H](C6=CC(=O)OC6)CC[C@]5(O)[C@@H]4CC[C@]3(O)C2)[C@H](O)[C@H](O)[C@H]1O` [ouabain] as the molecule, how does the “Inhibition of proliferation in vitro” value [1] read?
Answer: not significantly inhibited

Question: For `C[C@]12CC[C@H](O)C[C@H]1CC[C@@H]1[C@@H]2CC[C@]2(C)[C@@H](c3ccc(=O)oc3)CC[C@]12O` [bufalin], which IC50 (PANC1 cells) is on record?
Answer: 1.2 nM

Question: What about the In vitro response (PANC1 cells) of the same molecule?
Answer: Complete*** (Denotes greater than 75% growth inhibition achieved at 62 nM)

Question: What about the In vitro response (BXPC3 cells) of the same molecule?
Answer: No* (Denotes less than 50% growth inhibition achieved at concentrations up to 125 nM)

Question: And the IC50 (MiaPaca cells)?
Answer: 2.1 nM

Question: And the In vitro response (MiaPaca cells)?
Answer: Complete*** (Denotes greater than 75% growth inhibition achieved at 62 nM)

Question: What about the “Inhibition of proliferation in vitro” value [1] of the same molecule?
Answer: not significantly inhibited

Question: Which results are given for `CO[C@H]1C[C@H](O[C@H]2CC[C@@]3(C)[C@H](CC[C@@H]4[C@@H]3CC[C@]3(C)[C@@H](C5=CC(=O)OC5)[C@@H](OC(C)=O)C[C@]43O)C2)O[C@@H](C)[C@@H]1O` [oleandrin]?
Answer: IC50 [2]: > 50 nM; IC50 (PANC1 cells): 6.1 nM; In vitro response (PANC1 cells): Complete*** (Denotes greater than 75% growth inhibition achieved at 62 nM); IC50 (BRO cells; Homo sapiens): 8.2 nM; In vitro response (BRO cells): Complete*** (Denotes greater than 75% growth inhibition achieved at 62 nM); In vitro response (HCT116 cells): Partial** (Denotes greater than 50% but less than 75% growth inhibition achieved at 62 nM); IC50 (HCT116 cells; Homo sapiens, HCT-116): 36.2 nM; In vitro response (MCF7 cells): No* (Denotes less than 50% growth inhibition achieved at concentrations up to 125 nM); IC50 (SUM149 cells; Homo sapiens): 22.5 nM; In vitro response (SUM149 cells): Partial** (Denotes greater than 50% but less than 75% growth inhibition achieved at 62 nM); In vitro response (HT29 cells): Complete*** (Denotes greater than 75% growth inhibition achieved at 62 nM); IC50 (HT29 cells; Homo sapiens, HT-29): 15.6 nM; In vitro response (DOD-1 cells): Complete*** (Denotes greater than 75% growth inhibition achieved at 62 nM); IC50 (DOD-1 cells; Homo sapiens): 19.6 nM; In vitro response (LS174T cells): Complete*** (Denotes greater than 75% growth inhibition achieved at 62 nM); IC50 (LS174T cells; Homo sapiens): 20.7 nM; In vitro response (BXPC3 cells): No* (Denotes less than 50% growth inhibition achieved at concentrations up to 125 nM); In vitro response (CACO2 cells): Complete*** (Denotes greater than 75% growth inhibition achieved at 62 nM); IC50 (CACO2 cells; Homo sapiens, Caco-2): 9.4 nM; IC50 (MiaPaca cells): 14.2 nM; In vitro response (MiaPaca cells): Complete*** (Denotes greater than 75% growth inhibition achieved at 62 nM); In vitro response (MDA231 cells): No* (Denotes less than 50% growth inhibition achieved at concentrations up to 125 nM); Sensitivity of transfected cells to treatment [3]: lose their sensitivity; Difference in mean IC50 between cell line groups (human tumor cell lines): 8 fold; IC50 [4]: 4.1 nM; IC50 [5]: 10 nM; IC50 (Human melanoma BRO cells): 17 nM; Inhibition of proliferation in vitro [1]: not significantly inhibited
